ChEMBL document CHEMBL1201862, “PubChem BioAssay data set” (2004)
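96-well plates; 48 h exposure; 5 concentrations. Endpoints by linear interpolation between flanking doses. Not reached: highest tested concentration assigned. The concentration for 50% growth inhibition is given as GI50.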 The source made the active and inactive calls. Rule as the data show it: active = GI50 up to about 1.1 µM and inactive = higher.

Legend:
Assay in all cases: NCI-60 cell line screen, 48 h
SN12C = system: SN12C
IGROV-1 = system: IGROV-1
A549 = system: A549
SW-620 = system: SW-620
TK-10 = system: TK-10
NCI-H460 = system: NCI-H460
SF-295 = system: SF-295
EKVX = system: EKVX
OVCAR-4 = system: OVCAR-4
MCF7 = system: MCF7
RXF 393 = system: RXF 393
SNB-78 = system: SNB-78
NCI-H522 = system: NCI-H522
T47D = system: T47D
HOP-92 = system: HOP-92
SR = system: SR
MOLT-4 = system: MOLT-4
HCT-116 = system: HCT-116
SK-MEL-28 = system: SK-MEL-28
PC-3 = system: PC-3

Structure (SMILES)	GI50 (SN12C)	GI50 (IGROV-1)	GI50 (A549)	GI50 (SW-620)	GI50 (TK-10)	GI50 (NCI-H460)	GI50 (SF-295)	GI50 (EKVX)	GI50 (OVCAR-4)	GI50 (MCF7)	GI50 (RXF 393)	GI50 (SNB-78)	GI50 (NCI-H522)	GI50 (T47D)	GI50 (HOP-92)	GI50 (SR)	GI50 (MOLT-4)	GI50 (HCT-116)	GI50 (SK-MEL-28)	GI50 (PC-3)
O=C(Nc1cccc(C(F)(F)F)c1)C(=O)C(C(=O)c1ccc2ccccc2c1)C1OC(=O)c2ccccc21 (stereo unspecified)	13.2 µM (inactive)	18.2 µM (inactive)	10.7 µM (inactive)	6.25 µM (inactive)	22.6 µM (inactive)	5.61 µM (inactive)	5.19 µM (inactive)	14.5 µM (inactive)	9.12 µM (inactive)	7.16 µM (inactive)	4.16 µM (inactive)	7.45 µM (inactive)	8.26 µM (inactive)	8.99 µM (inactive)	22.8 µM (inactive)	3.24 µM (inactive)	1.82 µM (inactive)	6.82 µM (inactive)	6.79 µM (inactive)	
CN(C)CCNC(=O)c1cccc2ccc(-c3ccc(O)cc3)nc12	2.16 µM (inactive)	2.47 µM (inactive)	0.92 µM (active)	1.02 µM (active)	2.94 µM (inactive)	0.548 µM (active)	2.13 µM (inactive)	8.36 µM (inactive)	2.43 µM (inactive)	0.859 µM (active)	4.72 µM (inactive)	4.43 µM (inactive)	1.36 µM (inactive)	3.09 µM (inactive)	3.03 µM (inactive)	2.47 µM (inactive)	0.238 µM (active)	0.698 µM (active)	3.15 µM (inactive)	2.37 µM (inactive)
C[C@@H]1[C@@H]2[C@@H](C=C3C4CCC5Cc6nc7c(nc6C[C@@]5(C)C4C[C@H](O)[C@]32CO)CC2CCC3C4=C[C@H]5O[C@@]6(OC(C)(CO)C[C@@H]6O)[C@H](C)[C@@]5(O)[C@]4(C)[C@@H](O)CC3[C@]2(C)C7)O[C@]12CCC(C)(C)O2 (stereo partly specified)	0.904 µM (active)	0.387 µM (active)	0.0137 µM (active)	0.0225 µM (active)	0.473 µM (active)	0.0101 µM (active)	0.000508 µM (active)	0.0766 µM (active)	0.959 µM (active)	0.00075 µM (active)	0.00082 µM (active)	0.00486 µM (active)	0.579 µM (active)		0.00815 µM (active)	0.00255 µM (active)	0.00505 µM (active)	0.0306 µM (active)	0.0305 µM (active)	
CCN(CC)CCn1c2ccccc2c(=O)c2c(O)ccc(O)c21	30.8 µM (inactive)	38.5 µM (inactive)	83.9 µM (inactive)	13.8 µM (inactive)	31.6 µM (inactive)	> 57.9 µM (inactive)	22.5 µM (inactive)	> 46.5 µM (inactive)	17.3 µM (inactive)	18.8 µM (inactive)	19 µM (inactive)	23.4 µM (inactive)	15.4 µM (inactive)	18.2 µM (inactive)	19.4 µM (inactive)	12.4 µM (inactive)	18.5 µM (inactive)	31.1 µM (inactive)	33.2 µM (inactive)	24.5 µM (inactive)
COc1cc2c(c(OC)c1O)-c1ccc(SC)c(=O)cc1C(NC(C)=O)CC2 (stereo unspecified)	0.0518 µM (active)	0.0593 µM (active)	0.04 µM (active)	< 0.01 µM (active)	2.29 µM (inactive)	0.0341 µM (active)	0.0184 µM (active)	39.7 µM (inactive)	> 40.6 µM (inactive)		0.0171 µM (active)	< 0.01 µM (active)	< 0.01 µM (active)		0.0124 µM (active)	0.0112 µM (active)	< 0.0122 µM (active)	< 0.01 µM (active)	< 0.01 µM (active)	
CNC(=O)OCc1nc(SC2CCCCO2)n(C)c1COC(=O)NC (stereo unspecified)	> 100 µM (inactive)	> 100 µM (inactive)	> 100 µM (inactive)	> 100 µM (inactive)		> 100 µM (inactive)	> 100 µM (inactive)	> 100 µM (inactive)	> 100 µM (inactive)	> 100 µM (inactive)	> 100 µM (inactive)	> 100 µM (inactive)	> 100 µM (inactive)		> 100 µM (inactive)	> 100 µM (inactive)	> 100 µM (inactive)	> 100 µM (inactive)	> 100 µM (inactive)	
